In patent publication US5710130A, “Antithrombotic agents” (Eli Lilly and Company, priority 1995, dated 1998):
Where a name gives a salt, the structure may show the parent alone.

Experiments:
Type in all cases: biochemical
[1] = tested on: human plasma; assay: Human plasma anticoagulation, thrombin time (TT); details: concentration required to double thrombin time, linear extrapolation
Procedure: (§1) Dog plasma and rat plasma is obtained from conscious mixed-breed hounds (either sex, Hazelton-LRE, Kalamazoo, Mich., U.S.A.) or from anesthetized male Sprague-Dawley rats (Harlan Sprague-Dawley, Inc., Indianapolis, Ind., U.S.A.) by venipuncture into 3.8 percent citrate. Fibrinogen is prepared from in-date ACD human blood as the fraction I-2 according to previous procedures and specifications. […] Human fibrinogen is also purchased as 98 percent pure/plasmin free from American Diagnostica, Greenwich, Conn. Coagulation reagents ACTIN, Thromboplastin, and Human plasma are from Baxter Healthcare Corp., Dade Division, Miami, Fla. Bovine thrombin from Parke-Davis ([…], Mich.) is used for coagulation assays in plasma.
(§2) Coagulation assay procedures are as previously described. […] A CoAScreener coagulation instrument (American LABor, Inc.) is used for all coagulation assay measurements. The prothrombin time (PT) is measured by adding 0.05 mL saline and 0.05 mL Thromboplastin-C reagent to 0.05 mL test plasma. The activated partial thromboplastin time (APTT) is measured by incubation of 0.05 mL test plasma with 0.05 mL Actin reagent for 120 seconds followed by 0.05 mL CaCl2 (0.02M). The thrombin time (TT) is measured by adding 0.05 mL saline and 0.05 mL thrombin (10 NIH units/mL) to 0.05 mL test plasma. The compounds of Formula I are added to human or animal plasma over a wide range of concentrations to determine prolongation effects on the APTT, PT, and TT assays. Linear extrapolations are performed to estimate the concentrations required to double the clotting time for each assay.

[2] = target: Human Thrombin (Homo sapiens, UniProt P00734); assay: Inhibition of thrombin amidase activity (Kass), chromogenic substrate; details: mean Kass over a range of concentrations; substrate N-benzoyl-Phe-Val-Arg-p-nitroanilide
[3] = tested on: human plasma; assay: Human plasma anticoagulation, prothrombin time (PT); details: concentration required to double PT, linear extrapolation
Procedure: as §1, §2

[4] = tested on: human plasma; assay: Human plasma anticoagulation, activated partial thromboplastin time (APTT); details: concentration required to double APTT, linear extrapolation
Procedure: as §1, §2

Molecule	Human Plasma Anticoagulation 2x Clotting time TT [1]	Kass Human Thrombin [2]	Human Plasma Anticoagulation 2x Clotting time PT [3]	Human Plasma Anticoagulation 2x Clotting time APTT [4]
Cl.NC(N)=NC/C=C/CNC(=O)[C@@H]1CCCN1C(=O)[C@H](N)Cc1ccccc1 (relative stereo) [Example 8, D-Phe-Pro-NHCH2 -trans-CH=CHCH2 NHC(NH)NH2.HCl]	130 ng/mL	5.3 × 10^6 (L/mole)	–	–
Cl.NC[C@H]1CC[C@H](CNC(=O)[C@@H]2CCCN2C(=O)[C@H](N)Cc2ccccc2)CC1 (relative stereo) [Example 12, D-Phe-Pro-NHCH2 -trans-4-(aminomethyl)cyclohexane.HCl]	1,700 ng/mL	0.44 × 10^6 (L/mole)	–	–
N=C(N)c1ccc(CNC(=O)[C@@H]2C[C@@H]3CCCC[C@@H]3N2C(=O)[C@H]2CCCCN2)cc1 (relative stereo) [Example 20, (S-cis)-N-[[4-(aminoiminomethyl)phenyl]methyl]-octahydro-1-D-homoprolyl-1H-indole-2-carboxamide trihydrochloride]	–	–	600 ng/mL	–
N=C(N)c1ccc(CNC(=O)[C@@H]2C[C@@H]3CCCC[C@@H]3N2C(=O)[C@H]2C[C@H]3CCCC[C@H]3CN2)cc1 (relative stereo) [Example 43, D-3-Piq-cis-Ohi-p-NHCH2 C6 H4 C(NH)NH2.2HCl]	280 ng/mL	–	930 ng/mL	1,100 ng/mL
CCS(=O)(=O)N[C@H](Cc1ccccc1)C(=O)N1CCC[C@H]1C(=O)NCc1cccc(C(=N)N)c1 [Example 24, EtSO2 -D-Phe-Pro-m-NHCH2 -C6 H4 C(=NH)NH2.HCl]	1,000 ng/mL	–	25,000 ng/mL	–
CCS(=O)(=O)N[C@H](Cc1ccccc1)C(=O)N1CCC[C@H]1C(=O)NCCCc1cccc(C(=N)N)c1 [Example 31, EtSO2 -D-Phe-Pro-m-NHCH2 CH2 CH2 -C6 H4 C(=NH)NH2.HCl]	–	–	30,000 ng/mL	–
CCS(=O)(=O)N[C@H](Cc1ccccc1)C(=O)N1CCC[C@H]1C(=O)NCc1ccc(NC(=N)N)cc1 [Example 34, EtSO2 -D-Phe-Pro-p-NHCH2 C6 H4 NHC(NH)NH2.HCl]	530 ng/mL	–	5,500 ng/mL	4,900 ng/mL
CCS(=O)(=O)N[C@H](Cc1ccccc1)C(=O)N1CCC[C@H]1C(=O)NCCc1ccc(NC(=N)N)cc1 [Example 35, EtSO2 -D-Phe-Pro-p-NHCH2 CH2 C6 H4 NHC(NH)NH2.HCl]	4,500 ng/mL	–	78,400 ng/mL	50,400 ng/mL
CCS(=O)(=O)N[C@H](Cc1ccccc1)C(=O)N1CCC[C@H]1C(=O)NCc1cccc(NC(=N)N)c1 [Example 36, EtSO2 -D-Phe-Pro-m-NHCH2 C6 H4 NHC(NH)NH2.HCl]	7,700 ng/mL	–	> 91,000 ng/mL	> 91,000 ng/mL
N=C(N)Nc1cccc(CNC(=O)[C@@H]2CCCN2C(=O)[C@@H]2NCC[C@@H]3CCCC[C@@H]32)c1 [Example 40, D-1-Piq-Pro-m-NHCH2 C6 H4 NHC(NH)NH2.2HCl]	–	–	> 91,000 ng/mL	> 91,000 ng/mL
N=C(N)Nc1cccc(CCNC(=O)[C@@H]2CCCN2C(=O)[C@@H]2NCC[C@@H]3CCCC[C@@H]32)c1 [Example 41, D-1-Piq-Pro-m-NHCH2 CH2 C6 H4 NHC(NH)NH2.2HCl]	–	–	> 91,000 ng/mL	> 91,000 ng/mL
N=C(N)c1ccc(CNC(=O)[C@@H]2CCCN2C(=O)[C@@H](CC2CCCCC2)NCC(=O)O)cc1 [Example 48, N-(carboxymethyl)-D-cyclohexylalanyl-N-[[4-(aminoiminomethyl)phenyl]methyl]-L-prolinamide]	2 ng/mL	–	59 ng/mL	33 ng/mL
N=C(N)c1ccc(CNC(=O)[C@@H]2CCCN2C(=O)[C@H](N)CC2CCCCC2)cc1 [Example 51, D-cyclohexylalanyl-N-[[4-(aminoiminomethyl)phenyl]methyl]-L-prolinamide di-hydrochloride]	2 ng/mL	–	110 ng/mL	48 ng/mL
N=C(N)c1ccc(CNC(=O)[C@@H]2CCCN2C(=O)[C@@H](CC2CCCCC2)NCCC(=O)O)cc1 [Example 52, N-(2-carboxyethyl)-D-cyclohexylalanyl-N-[[4-(aminoiminomethyl)phenyl]methyl]-L-prolinamide hydrochloride]	6 ng/mL	–	170 ng/mL	80 ng/mL
O=C(O)CN[C@H](CC1CCCCC1)C(=O)N1CCC[C@H]1C(=O)NCCCC1CCNCC1 [Example 55, HO2 CCH2 -D-Cha-Pro-4-NHCH2 CH2 CH2 -piperidine.HCl]	–	–	> 91,000 ng/mL	> 91,000 ng/mL
N=C(N)N1CCC(CNC(=O)[C@@H]2CCCN2C(=O)[C@@H](CC2CCCCC2)NCC(=O)O)CC1 [Example 56, N-(carboxymethyl)-D-cyclohexylalanyl-N-[[1-(aminoiminomethyl)-hexahydropyridin-4-yl-]methyl]-L-prodimamide hydrochloride]	5 ng/mL	–	200 ng/mL	160 ng/mL
N=C(N)N1CC=C(CNC(=O)[C@@H]2CCCN2C(=O)[C@@H](CC2CCCCC2)NCC(=O)O)CC1 [Example 70, N-(carboxymethyl)-D-cyclohexylalanyl-N-[[1-(aminoiminomethyl)-1,2,3,6-tetrahydropyridin-4-yl]methyl]-L-prolinamide hydrochloride]	2 ng/mL	–	180 ng/mL	160 ng/mL
Cl.Nc1ccc(CCNC(=O)[C@@H]2CCCN2C(=O)[C@@H](CC2CCCCC2)NCC(=O)O)cn1 [Example 75, HO2 CCH2 -D-Cha-Pro-5-NHCH2 CH2 -2-aminopyridine.HCl]	–	0.45 × 10^6 (L/mole)	–	–
NCC1CCC(CNC(=O)[C@@H]2CCCN2C(=O)[C@@H](CC2CCCCC2)NCC(=O)O)CC1 (stereo partly drawn) [Example 79, HO2 CCH2 -D-Cha-Pro-4-NHCH2 C6 H10 CH2 NH2.HCl]	140 ng/mL	–	2,400 ng/mL	1,700 ng/mL
CCS(=O)(=O)N[C@H](CC1CCCCC1)C(=O)N1CCC[C@H]1C(=O)NCc1ccc(CN)cc1 [Example 81, EtSO2 -D-Cha-Pro-4-NHCH2 C6 H4 CH2 NH2.HCl]	110 ng/mL	–	2,700 ng/mL	1,500 ng/mL
N=C(N)c1ccc(CNC(=O)[C@@H]2CCCN2C(=O)[C@@H](CC2CCCCC2)NCCCC(=O)O)cc1 [Example 85, N-(3-carboxypropyl)-D-cyclohexylalanyl-N-[[4-(aminoiminomethyl)phenyl]methyl]-L-prolinamide hydrochloride]	4.9 ng/mL	–	–	100 ng/mL
N=C(N)c1ccc(CNC(=O)[C@@H]2CCCN2C(=O)[C@@H](CCC2CCCCC2)NCC(=O)O)cc1 [Example 88, hydrochloride]	4 ng/mL	–	200 ng/mL	100 ng/mL
CCC(CC)C(=O)N[C@@H](CCS(C)(=O)=O)C(=O)N1CCC[C@H]1C(=O)NCc1ccc(C(=N)N)cc1 [Example 91, (C2 H5)2 CHCO-Met(O2)-Pro-p-NHCH2 C6 H4 C(NH)NH2.HCl]	63 ng/mL	–	3,500 ng/mL	3,000 ng/mL
CS(=O)(=O)CC(=O)N[C@H](CC1CCCCC1)C(=O)N1CCC[C@H]1C(=O)NCc1ccc(C(=N)N)cc1 [Example 92, (N-methylsulfonylacetyl)-L-cyclohexylalanyl-N-[[4-(aminoiminomethyl)phenyl]methyl]-L-prolinamide hydrochloride]	8.9 ng/mL	–	340 ng/mL	210 ng/mL
(S-cis)-N-[[4-(amino iminomethyl)phenyl]methyl]-1-[N-(ethylsulfonyl)-D-phenylglycyl]-1H-indole- 2-carboxamide hydrochloride [Example 44]	4 ng/mL	–	170 ng/mL	100 ng/mL
